Experiments:
Test in all cases: Additive compatibility with microbial growth (growth slope by OD 620 nm)
Assay type in all cases: cell-based
Conditions in all cases: additive 0.01-5 %, exposed 4 hours at 16° C., then tryptic soy broth 30° C., slope compared to 0% sample
Pseudomonas fluorescens = tested on: Pseudomonas fluorescens
Bacillus firmus = tested on: Bacillus firmus
[1] = tested on: Bacillus amyloliquefaciens
Bacillus subtilis = tested on: Bacillus subtilis

## 2-propylheptanol Alkoxylate with 5 moles EO [xi-4]
Pseudomonas fluorescens
  Influence of additive on microbial growth slope (compatibility), Pseudomonas fluorescens: S
Bacillus firmus
  Influence of additive on microbial growth slope (compatibility), Bacillus firmus: S
[1]
  Influence of additive on microbial growth slope (compatibility), Bacillus amyloliquefaciens: S
Bacillus subtilis
  Influence of additive on microbial growth slope (compatibility), Bacillus subtilis: S

## 2-propylheptanol POE 5 [xi-3]
Pseudomonas fluorescens
  Influence of additive on microbial growth slope (compatibility), Pseudomonas fluorescens: S
Bacillus firmus
  Influence of additive on microbial growth slope (compatibility), Bacillus firmus: S
[1]
  Influence of additive on microbial growth slope (compatibility), Bacillus amyloliquefaciens: S
Bacillus subtilis
  Influence of additive on microbial growth slope (compatibility), Bacillus subtilis: S

## Soybean Oil POE 30 [vi-2]
Pseudomonas fluorescens
  Influence of additive on microbial growth slope (compatibility), Pseudomonas fluorescens: N
Bacillus firmus
  Influence of additive on microbial growth slope (compatibility), Bacillus firmus: N
[1]
  Influence of additive on microbial growth slope (compatibility), Bacillus amyloliquefaciens: S
Bacillus subtilis
  Influence of additive on microbial growth slope (compatibility), Bacillus subtilis: S

## Magnesium Oleate [xviii-1]
Pseudomonas fluorescens
  Influence of additive on microbial growth slope (compatibility), Pseudomonas fluorescens: S
Bacillus firmus
  Influence of additive on microbial growth slope (compatibility), Bacillus firmus: S
Bacillus subtilis
  Influence of additive on microbial growth slope (compatibility), Bacillus subtilis: S

## Castor Oil POE 16 [vi-3]
Pseudomonas fluorescens
  Influence of additive on microbial growth slope (compatibility), Pseudomonas fluorescens: N
Bacillus firmus
  Influence of additive on microbial growth slope (compatibility), Bacillus firmus: N
[1]
  Influence of additive on microbial growth slope (compatibility), Bacillus amyloliquefaciens: N
Bacillus subtilis
  Influence of additive on microbial growth slope (compatibility), Bacillus subtilis: N

## C12-C16 alkylpolyglycoside [iv-2]
Pseudomonas fluorescens
  Influence of additive on microbial growth slope (compatibility), Pseudomonas fluorescens: N
Bacillus firmus
  Influence of additive on microbial growth slope (compatibility), Bacillus firmus: S
[1]
  Influence of additive on microbial growth slope (compatibility), Bacillus amyloliquefaciens: S
Bacillus subtilis
  Influence of additive on microbial growth slope (compatibility), Bacillus subtilis: S

## C12-C18 fatty acid methyl ester [ii-2]
Pseudomonas fluorescens
  Influence of additive on microbial growth slope (compatibility), Pseudomonas fluorescens: N
Bacillus firmus
  Influence of additive on microbial growth slope (compatibility), Bacillus firmus: S
[1]
  Influence of additive on microbial growth slope (compatibility), Bacillus amyloliquefaciens: N
Bacillus subtilis
  Influence of additive on microbial growth slope (compatibility), Bacillus subtilis: N

## 2-propylheptanol Alkoxylate with 7 moles EO [xi-5]
Pseudomonas fluorescens
  Influence of additive on microbial growth slope (compatibility), Pseudomonas fluorescens: S
Bacillus firmus
  Influence of additive on microbial growth slope (compatibility), Bacillus firmus: S
[1]
  Influence of additive on microbial growth slope (compatibility), Bacillus amyloliquefaciens: S
Bacillus subtilis
  Influence of additive on microbial growth slope (compatibility), Bacillus subtilis: S

## C8-C10 fatty alcohol [xvi-1]
Pseudomonas fluorescens
  Influence of additive on microbial growth slope (compatibility), Pseudomonas fluorescens: S
Bacillus firmus
  Influence of additive on microbial growth slope (compatibility), Bacillus firmus: S
[1]
  Influence of additive on microbial growth slope (compatibility), Bacillus amyloliquefaciens: S
Bacillus subtilis
  Influence of additive on microbial growth slope (compatibility), Bacillus subtilis: S

## Tallow amine POE20 [xiii-2]
Bacillus firmus
  Influence of additive on microbial growth slope (compatibility), Bacillus firmus: S
[1]
  Influence of additive on microbial growth slope (compatibility), Bacillus amyloliquefaciens: S
Bacillus subtilis
  Influence of additive on microbial growth slope (compatibility), Bacillus subtilis: S

## Dibutyl Naphthalene Sulfonate, Sodium [viii-1]
[1]
  Influence of additive on microbial growth slope (compatibility), Bacillus amyloliquefaciens: E (E represents an Enhancing result)
Bacillus subtilis
  Influence of additive on microbial growth slope (compatibility), Bacillus subtilis: E (E represents an Enhancing result)

## C12-C14 dimethyl amide [xv-3]
Bacillus firmus
  Influence of additive on microbial growth slope (compatibility), Bacillus firmus: S
[1]
  Influence of additive on microbial growth slope (compatibility), Bacillus amyloliquefaciens: S
Bacillus subtilis
  Influence of additive on microbial growth slope (compatibility), Bacillus subtilis: S

## CC(O)C(=O)N(C)C (centres unmarked) [xv-1, Dimethyl lactamide]
Pseudomonas fluorescens
  Influence of additive on microbial growth slope (compatibility), Pseudomonas fluorescens: N
Bacillus firmus
  Influence of additive on microbial growth slope (compatibility), Bacillus firmus: N
[1]
  Influence of additive on microbial growth slope (compatibility), Bacillus amyloliquefaciens: S
Bacillus subtilis
  Influence of additive on microbial growth slope (compatibility), Bacillus subtilis: S

## Sorbitan monolaurate POE 20 [xii-2]
Pseudomonas fluorescens
  Influence of additive on microbial growth slope (compatibility), Pseudomonas fluorescens: S
Bacillus firmus
  Influence of additive on microbial growth slope (compatibility), Bacillus firmus: S
[1]
  Influence of additive on microbial growth slope (compatibility), Bacillus amyloliquefaciens: S
Bacillus subtilis
  Influence of additive on microbial growth slope (compatibility), Bacillus subtilis: S

## Soybean Oil POE 10 [vi-1]
Pseudomonas fluorescens
  Influence of additive on microbial growth slope (compatibility), Pseudomonas fluorescens: E (E represents an Enhancing result)
Bacillus firmus
  Influence of additive on microbial growth slope (compatibility), Bacillus firmus: S
[1]
  Influence of additive on microbial growth slope (compatibility), Bacillus amyloliquefaciens: N
Bacillus subtilis
  Influence of additive on microbial growth slope (compatibility), Bacillus subtilis: N

## Sodium Tallowate [xviii-2]
Pseudomonas fluorescens
  Influence of additive on microbial growth slope (compatibility), Pseudomonas fluorescens: S

## Tridecyl alcohol POE 9 [xi-2]
Pseudomonas fluorescens
  Influence of additive on microbial growth slope (compatibility), Pseudomonas fluorescens: S
Bacillus firmus
  Influence of additive on microbial growth slope (compatibility), Bacillus firmus: S
[1]
  Influence of additive on microbial growth slope (compatibility), Bacillus amyloliquefaciens: S
Bacillus subtilis
  Influence of additive on microbial growth slope (compatibility), Bacillus subtilis: S

## Sorbitan trioleate POE 20 [xii-4]
Pseudomonas fluorescens
  Influence of additive on microbial growth slope (compatibility), Pseudomonas fluorescens: S
Bacillus firmus
  Influence of additive on microbial growth slope (compatibility), Bacillus firmus: S
[1]
  Influence of additive on microbial growth slope (compatibility), Bacillus amyloliquefaciens: S
Bacillus subtilis
  Influence of additive on microbial growth slope (compatibility), Bacillus subtilis: N

## Tridecyl alcohol POE 3 [xi-1]
Pseudomonas fluorescens
  Influence of additive on microbial growth slope (compatibility), Pseudomonas fluorescens: S
Bacillus firmus
  Influence of additive on microbial growth slope (compatibility), Bacillus firmus: S
[1]
  Influence of additive on microbial growth slope (compatibility), Bacillus amyloliquefaciens: S
Bacillus subtilis
  Influence of additive on microbial growth slope (compatibility), Bacillus subtilis: S

## Olleyl-Cetyl alcohol (90% Oleyl) [xvi-3]
Pseudomonas fluorescens
  Influence of additive on microbial growth slope (compatibility), Pseudomonas fluorescens: S
Bacillus firmus
  Influence of additive on microbial growth slope (compatibility), Bacillus firmus: S
[1]
  Influence of additive on microbial growth slope (compatibility), Bacillus amyloliquefaciens: S
Bacillus subtilis
  Influence of additive on microbial growth slope (compatibility), Bacillus subtilis: S

## Olleyl-Cetyl alcohol (80% Oleyl) [xvi-2]
Pseudomonas fluorescens
  Influence of additive on microbial growth slope (compatibility), Pseudomonas fluorescens: N
Bacillus firmus
  Influence of additive on microbial growth slope (compatibility), Bacillus firmus: S
[1]
  Influence of additive on microbial growth slope (compatibility), Bacillus amyloliquefaciens: N
Bacillus subtilis
  Influence of additive on microbial growth slope (compatibility), Bacillus subtilis: N

## PEG 400 monolaurate [v-1]
Pseudomonas fluorescens
  Influence of additive on microbial growth slope (compatibility), Pseudomonas fluorescens: S
[1]
  Influence of additive on microbial growth slope (compatibility), Bacillus amyloliquefaciens: N
Bacillus subtilis
  Influence of additive on microbial growth slope (compatibility), Bacillus subtilis: N

## Sorbitan monooleate [xii-1]
Pseudomonas fluorescens
  Influence of additive on microbial growth slope (compatibility), Pseudomonas fluorescens: E (E represents an Enhancing result)
Bacillus firmus
  Influence of additive on microbial growth slope (compatibility), Bacillus firmus: S
[1]
  Influence of additive on microbial growth slope (compatibility), Bacillus amyloliquefaciens: S
Bacillus subtilis
  Influence of additive on microbial growth slope (compatibility), Bacillus subtilis: S

## Castor Oil POE 40 [vi-4]
Bacillus firmus
  Influence of additive on microbial growth slope (compatibility), Bacillus firmus: N
[1]
  Influence of additive on microbial growth slope (compatibility), Bacillus amyloliquefaciens: N
Bacillus subtilis
  Influence of additive on microbial growth slope (compatibility), Bacillus subtilis: N

## Sorbitan monooleate POE 20 [xii-3]
Pseudomonas fluorescens
  Influence of additive on microbial growth slope (compatibility), Pseudomonas fluorescens: N
Bacillus firmus
  Influence of additive on microbial growth slope (compatibility), Bacillus firmus: S
[1]
  Influence of additive on microbial growth slope (compatibility), Bacillus amyloliquefaciens: N
Bacillus subtilis
  Influence of additive on microbial growth slope (compatibility), Bacillus subtilis: N

## Isodecyl alcohol POE6 phosphate ester [xix-3]
Pseudomonas fluorescens
  Influence of additive on microbial growth slope (compatibility), Pseudomonas fluorescens: S
Bacillus firmus
  Influence of additive on microbial growth slope (compatibility), Bacillus firmus: S
[1]
  Influence of additive on microbial growth slope (compatibility), Bacillus amyloliquefaciens: S
Bacillus subtilis
  Influence of additive on microbial growth slope (compatibility), Bacillus subtilis: S

## PEG 400 monooleate [v-2]
Pseudomonas fluorescens
  Influence of additive on microbial growth slope (compatibility), Pseudomonas fluorescens: S
[1]
  Influence of additive on microbial growth slope (compatibility), Bacillus amyloliquefaciens: N
Bacillus subtilis
  Influence of additive on microbial growth slope (compatibility), Bacillus subtilis: N

## CCCCCCCC/C=C\CCCCCCCC(=O)OC [ii-4, Oleic acid methyl ester]
Pseudomonas fluorescens
  Influence of additive on microbial growth slope (compatibility), Pseudomonas fluorescens: N
Bacillus firmus
  Influence of additive on microbial growth slope (compatibility), Bacillus firmus: N
[1]
  Influence of additive on microbial growth slope (compatibility), Bacillus amyloliquefaciens: E (E represents an Enhancing result)
Bacillus subtilis
  Influence of additive on microbial growth slope (compatibility), Bacillus subtilis: N

## Tallow amine POE15 [xiii-1]
Pseudomonas fluorescens
  Influence of additive on microbial growth slope (compatibility), Pseudomonas fluorescens: E (E represents an Enhancing result)
Bacillus firmus
  Influence of additive on microbial growth slope (compatibility), Bacillus firmus: S
[1]
  Influence of additive on microbial growth slope (compatibility), Bacillus amyloliquefaciens: S
Bacillus subtilis
  Influence of additive on microbial growth slope (compatibility), Bacillus subtilis: S

## Butyl alcohol POP 31 POE 31 [vii-7]
Pseudomonas fluorescens
  Influence of additive on microbial growth slope (compatibility), Pseudomonas fluorescens: N
Bacillus firmus
  Influence of additive on microbial growth slope (compatibility), Bacillus firmus: N
[1]
  Influence of additive on microbial growth slope (compatibility), Bacillus amyloliquefaciens: N
Bacillus subtilis
  Influence of additive on microbial growth slope (compatibility), Bacillus subtilis: N

## C8-C10 alkylpolyglycoside [iv-1]
Pseudomonas fluorescens
  Influence of additive on microbial growth slope (compatibility), Pseudomonas fluorescens: N
Bacillus firmus
  Influence of additive on microbial growth slope (compatibility), Bacillus firmus: N
[1]
  Influence of additive on microbial growth slope (compatibility), Bacillus amyloliquefaciens: N
Bacillus subtilis
  Influence of additive on microbial growth slope (compatibility), Bacillus subtilis: N

From patent US20240188561A1, “ADDITIVES FOR ENHANCING THE PESTICIDAL EFFECTIVENESS OF PESTICIDAL MICROORGANISMS” (priority 2021, published 2024)
